One series deals with NCI-H358. As to the kind of experiment: Antiproliferative activity against human NCI-H358 cells assessed as inhibition of cell proliferation incubated for 6 days by CCK8 assay. Format: functional, cell-based. A general note: Tetrazolium assays rely on reduction of a dye to a coloured formazan, in cell work by metabolically active cells.
Series [1] deals with T1, GTPase KRas (Homo sapiens, UniProt P01116, G12C). As to the kind of experiment: Inhibition of GDP-loaded His-tagged KRAS G12C mutant (2 to 182 residues) (unknown origin) assessed as inhibition of SOS1-catalyzed nucleotide exchange preincubated for 1 hr followed by SOS1 addition measured after 1 hr by TR-FRET assay. On the technique in general: In TR-FRET formats the signal depends on donor and acceptor labels being close together.

Series [2] concerns the target T1, GTPase KRas. As to the kind of experiment: Inhibition of KRAS G12C mutant in human NCI-H358 cells assessed as reduction in ERK phosphorylation incubated for 2 hrs by HTRF assay. The class given is cell-based.
Series [3] in a line: Oral bioavailability in Beagle dog at 10 mg/kg measured up to 24 hrs by LC-MS analysis. The class given is ADME, organism-based, Canis lupus familiaris. To be noted: in vivo.

For eight compounds, IC50, F and bioavailability results are on record in ChEMBL document CHEMBL4842392, “Targeting KRAS Mutant Protein Inhibitor for Potential Treatment in Cancer” (ACS Med Chem Lett, 2021).

Each structure is given as a SMILES string. Values joined by “and” are separate entries in the source; they are usually repeats but may differ in a detail not shown here. Equal values may be shown once.

For `C=CC(=O)N1CCN(c2c(C#N)c(=O)n(-c3c(C(C)C)ncnc3C(C)C)c3nc(-c4c(N)c(Cl)cc(Cl)c4F)c(Cl)cc23)CC1`, the half-inhibitory concentration (IC50) (commonly the concentration at which inhibition is half-maximal) turned out to be 32 nM in the series with NCI-H358 (Homo sapiens, NCI-H358, 144 h); 4.74 nM on GTPase KRas [1]; 18.5 nM at GTPase KRas [2].
Regarding `C=CC(=O)N1CCN(c2c(C#N)c(=O)n(-c3c(C)ccnc3C(C)C)c3nc(-c4c(N)c(Cl)cc(Cl)c4F)c(Cl)cc23)C[C@@H]1CC#N`, the IC50 came out at 6.66 nM on GTPase KRas [1] and 12.3 nM at GTPase KRas [2].
As for `C=CC(=O)N1CCN(c2c(C#N)c(=O)n(-c3c(C)ccnc3C(C)C)c3nc(-c4c(N)c(Cl)cc(Cl)c4F)c(Cl)cc23)CC1`, the half-inhibitory concentration (IC50) in the series with NCI-H358 (Homo sapiens, NCI-H358, 144 h) is 27.6 nM; in the series on NCI-H358 (nci-h358), 14.5 nM; at GTPase KRas [1], 1.95 nM and 1.54 nM; on GTPase KRas [2] it was 10.4 nM and 11.7 nM. For the same compound, the F in series [3] (10 mg/kg, 24 h) was 98.5% and 63.1%.
On to `C=CC(=O)N1CCN(c2c(C#N)c(=O)n(-c3c(C(C)C)ncnc3C(C)C)c3nc(-c4c(N)cccc4F)c(Cl)cc23)CC1`, for which the IC50 on GTPase KRas [2] worked out at 20.1 nM.
For `C=CC(=O)N1CCN(c2c(C#N)c(=O)n(-c3c(C)ccnc3C(C)C)c3nc(-c4c(N)c(Cl)cc(Cl)c4F)c(Cl)cc23)CC1CC#N` (centres undefined), the 50% inhibitory concentration (IC50) in the series on NCI-H358 (Homo sapiens, NCI-H358, 144 h) worked out at 35.6 nM; at GTPase KRas [1], 5.19 nM; on GTPase KRas [2] it was 14.9 nM.
Regarding `C=CC(=O)N1CCN(c2c(C#N)c(=O)n(-c3c(C)ccnc3C(C)C)c3nc(-c4c(N)c(Cl)cc(Cl)c4F)c(Cl)cc23)C[C@H]1C`, the IC50 with NCI-H358 (Homo sapiens, NCI-H358, 144 h) came out at 25.4 nM; on GTPase KRas [1], 2.54 nM; on GTPase KRas [2], 28.8 nM. In addition, the bioavailability (as a rule, dose-corrected exposure relative to a reference, in per cent) in series [3] (beagle) was 70.3%.
As for `C=CC(=O)N1[C@H](C)CN(c2c(C#N)c(=O)n(-c3c(C)ccnc3C(C)C)c3nc(-c4c(N)c(Cl)cc(Cl)c4F)c(Cl)cc23)C[C@@H]1C`, the IC50 worked out at 17.5 nM with NCI-H358 (Homo sapiens, NCI-H358, 144 h); 2.83 nM at GTPase KRas [1]; 38.1 nM on GTPase KRas [2].
Take `C=CC(=O)N1CCN(c2c(C#N)c(=O)n(-c3c(C)ccnc3C(C)C)c3nc(-c4ccccc4F)c(Cl)cc23)CC1`: the half-maximal inhibitory concentration (IC50) stood at 52.1 nM in the series with NCI-H358 (Homo sapiens, NCI-H358, 144 h); 4.4 nM on GTPase KRas [1]; 29.9 nM on GTPase KRas [2].
